# Data as given in ChEMBL document CHEMBL4020702, “Development of α1,6-fucosyltransferase inhibitors through the diversity-oriented syntheses of GDP-fucose mimics using the coupling between alkyne and sulfonyl azide” (Bioorg Med Chem, 2017).
# Target: T1, Alpha-(1,6)-fucosyltransferase (Homo sapiens) (UniProt Q9BYC5)
# T1 sequence (whole entry): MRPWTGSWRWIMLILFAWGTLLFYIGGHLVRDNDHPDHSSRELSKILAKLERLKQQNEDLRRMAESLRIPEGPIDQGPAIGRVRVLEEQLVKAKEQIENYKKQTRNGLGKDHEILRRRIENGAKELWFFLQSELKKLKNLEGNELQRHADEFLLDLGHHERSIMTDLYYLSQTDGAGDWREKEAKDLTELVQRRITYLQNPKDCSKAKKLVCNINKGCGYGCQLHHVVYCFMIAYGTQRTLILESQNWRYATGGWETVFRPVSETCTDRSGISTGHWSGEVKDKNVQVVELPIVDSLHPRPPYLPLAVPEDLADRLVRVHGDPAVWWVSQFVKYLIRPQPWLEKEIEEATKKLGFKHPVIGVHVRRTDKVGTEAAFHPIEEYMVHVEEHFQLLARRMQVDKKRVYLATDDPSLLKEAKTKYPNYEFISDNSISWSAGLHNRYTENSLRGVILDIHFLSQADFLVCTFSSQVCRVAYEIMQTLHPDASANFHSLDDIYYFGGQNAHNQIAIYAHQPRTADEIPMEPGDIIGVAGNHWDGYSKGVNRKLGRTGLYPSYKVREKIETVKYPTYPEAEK
# Assay: Inhibition of FUT8 in human […] cells at 100 uM using (S)-2-(((9H-fluoren-9-yl)methoxy)carbonylamino)-4-((2R,3R,4R,5S,6R)-3-acetamido-5-((2S,3R,4R,5S,6R)-3-acetamido-5-((2S,3S,4S,5R,6R)-4-((2R,3S,4S,5S,6R)-3-((2S,3R,4R,5S,6R)-3-acetamido-4,5-dihydroxy-6-(hydroxymethyl)tetrahydro-2H-pyran-2-yloxy)-4,5-dihydroxy-6-(hydroxymethyl)tetrahydro-2H-pyran-2-yloxy)-6-(((2S,3S,4S,5S,6R)-3-((2S,3R,4R,5S,6R)-3-acetamido-4,5-dihydroxy-6-(hydroxymethyl)tetrahydro-2H-pyran-2-yloxy)-4,5-dihydroxy-6-(hydroxymethyl)tetrahydro-2H-pyran-2-yloxy)methyl)-3,5-dihydroxytetrahydro-2H-pyran-2-yloxy)-4-hydroxy-6-(hydroxymethyl)tetrahydro-2H-pyran-2-yloxy)-4-hydroxy-6-(hydroxymethyl)tetrahydro-2H-pyran-2-ylamino)-4-oxobutanoic acid as substrate after 24 hrs in presence of GDP-fucose by HPLC method relative to control
# Format: cell-based
row,inhibition [%],SMILES
1,41,CCCN/C(CCO[C@H]1O[C@@H](C)[C@@H](O)[C@@H](O)[C@@H]1O)=N\S(=O)(=O)CCCCCn1cnc2c(=O)[nH]c(N)nc21
2,31,C[C@@H]1O[C@H](OCCC(=O)NS(=O)(=O)CCCCCn2cnc3c(=O)[nH]c(N)nc32)[C@@H](O)[C@H](O)[C@@H]1O
3,57,CO/C(CCO[C@H]1O[C@@H](C)[C@@H](O)[C@@H](O)[C@@H]1O)=N\S(=O)(=O)CCCCCn1cnc2c(=O)[nH]c(N)nc21
4,39,CCN(CC)/C(CCO[C@H]1O[C@@H](C)[C@@H](O)[C@@H](O)[C@@H]1O)=N\S(=O)(=O)CCCCCn1cnc2c(=O)[nH]c(N)nc21
5,45,C[C@@H]1O[C@H](OCc2cn(S(=O)(=O)CCCCCn3cnc4c(=O)[nH]c(N)nc43)nn2)[C@@H](O)[C@H](O)[C@@H]1O
6,14,CCCS/C(CCO[C@H]1O[C@@H](C)[C@@H](O)[C@@H](O)[C@@H]1O)=N\S(=O)(=O)CCCCCn1cnc2c(=O)[nH]c(N)nc21
